Earlier results, collected in patent US20230088267A1, “Dual chamber electronic nicotine delivery system with puff duration control and timed lockout and just-in-time adaptive intervention to treat nicotine dependence in cigarette smokers” (Virginia Commonwealth University, priority 2021, published 2023).

CN1CCC[C@H]1c1cccnc1 [nicotine, L-nicotine]
pka of the second nitrogen atom, located in the aromatic pyridine moiety (pyridine nitrogen, protonated under acidic conditions): 3.10 | pka of the nitrogen atom in the pyrrolidine moiety (pyrrolidine nitrogen, basic): 8.01
